This is an account of results in patent US20190292155A1, “THERAPEUTIC INHIBITORY COMPOUNDS” (LifeSci Pharmaceuticals, Inc., priority 2016, published 2019).

T1 sequence (P00746 26-253): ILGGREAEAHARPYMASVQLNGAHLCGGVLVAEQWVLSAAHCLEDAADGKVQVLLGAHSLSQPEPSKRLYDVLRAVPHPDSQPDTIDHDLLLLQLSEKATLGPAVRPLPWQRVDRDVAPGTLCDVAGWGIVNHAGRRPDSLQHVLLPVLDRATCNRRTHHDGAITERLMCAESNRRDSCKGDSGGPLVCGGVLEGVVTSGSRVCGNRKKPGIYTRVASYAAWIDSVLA

One experiment has as its target T1, human complement factor D (Homo sapiens, UniProt P00746).
T1 construct: purchased R&D Systems 1824-SE
Kind of experiment: In vitro enzyme inhibition of human complement factor D (Z-Lys-SBzl/DTNB, A405). It is filed as biochemical.
Settings: not given
As to the method: The ability of the compounds disclosed herein to inhibit human complement factor D inhibitory activity was quantified according to the 12-step protocol provided below. • 1. Prepare assay buffer: 50 mM Tris/HCl, pH 7.5, 1 M NaCl. • 2. […] Then dilute the serial concentrations of Nafamostat Mesilate 20-fold in assay buffer. • 3. […] 0.5% DMSO was in each well finally. • 4. […] Add 10 μl diluted test compounds duplicated into the 96-well plate. […] 0.5% DMSO was in each well finally. • 6. Dilute 20 mM substrate Z-Lys-SBzl (Bachem, Cat# M-1300) to 200 μM in assay buffer with 200 μM DTNB (Sigma, Catalog# D8130). • 7. […] Add 40 μl diluted Complement Factor D in the 96-well plate. • 8. Positive control well contains Complement Factor D without test compound. Negative control well contains neither Complement Factor D nor test compound. Using assay buffer, bring the total volume of all controls to 50 al. • 9. Pre-incubate the plate for 5 min at room temperature. • 10. Add 50 μl of diluted substrate/DTNB mixture into each well. […] For kinetic reading: Immediately start measuring absorbance (A405 nm) continuously and record data every 30 sec for 60 min. • 12. Data analysis • Inhibition activity of compound was evaluated by IC50. IC50 was calculated according the dose-response curve of compound fitted using GraphPadPrism with “log(inhibitor)-response (variable slope)” equation. • % inhibition was calculated by using following equation:
[formula] • Mean(NC): The average value of the negative control wells' A405 nm values. • Mean(PC): The average value of the positive control wells' A405 nm values.
In general, IC50 refers to the concentration that inhibits the measured activity by half. In turn, `CC(CO)N(CC(=O)NCc1cccc(Cl)c1F)C(=O)Cn1nc(C(N)=O)c2ccccc21` (stereo not shown) [Example 58, 1-(2-((2-((3-chloro-2-fluorobenzyl)amino)-2-oxoethyl)(1-hydroxypropan-2-yl)amino)-2-oxoethyl)-1H-indazole-3-carboxamide] yielded an IC50 of 100 to 1000 nM.

The same experiment, now with this note: biochemical assay, substrate Z-Lys-SBzl; read-out: CFD IC50.
Turning to `NC(=O)c1nn(CC(=O)N(CC(=O)NCc2cc(Cl)cc3[nH]ncc23)C2CC2)c2ccccc12` [Example 91, 1-(2-((2-(((6-chloro-1H-indazol-4-yl)methyl)amino)-2-oxoethyl)(cyclopropyl)amino)-2-oxoethyl)-1H-indazole-3-carboxamide], the IC50 is 100 to 1000 nM.
For the compound `NC(=O)c1nc(CC(=O)N(CC(=O)NCc2cccc(Cl)c2F)C2CC2)c2ccccn12` [Example 138, 1-(2-((2-((3-chloro-2-fluorobenzyl)amino)-2-oxoethyl)(cyclopropyl)amino)-2-oxoethyl)imidazo[1,5-a]pyridine-3-carboxamide], the 50% inhibitory concentration (IC50) was in the range of 100 to 1000 nM.
Same read-out and setting: next, `NC(=O)c1nn(CC(=O)N(CC(=O)NCc2cccc(Cl)c2F)C2CCNC2)c2ccccc12` (stereo not shown) [Example 37, 1-(2-((2-((3-chloro-2-fluorobenzyl)amino)-2-oxoethyl)(pyrrolidin-3-yl)amino)-2-oxoethyl)-1H-indazole-3-carboxamide]: 1000 to 10000 nM; `CC(N(CC(=O)NCc1cccc(Cl)c1F)C(=O)Cn1nc(C(N)=O)c2ccccc21)C(C)(C)C` (stereo not shown) [Example 64, 1-(2-((2-((3-chloro-2-fluorobenzyl)amino)-2-oxoethyl)(3,3-dimethylbutan-2-yl)amino)-2-oxoethyl)-1H-indazole-3-carboxamide]: 100 to 1000 nM.
Same read-out and setting: next, `CC(N(CC(=O)NCc1cccc(Cl)c1F)C(=O)Cn1nc(C(N)=O)c2ccccc21)C(F)(F)F` (stereo not shown) [Example 67, 1-(2-((2-((3-chloro-2-fluorobenzyl)amino)-2-oxoethyl)(1,1,1-trifluoropropan-2-yl)amino)-2-oxoethyl)-1H-indazole-3-carboxamide]: 100 to 1000 nM; `NC(=O)c1nn(CC(=O)N(CC(=O)NCc2cccc(Cl)c2F)C2CC2)c2c(Cl)cccc12` [Example 81, 7-chloro-1-(2-((2-((3-chloro-2-fluorobenzyl)amino)-2-oxoethyl)(cyclopropyl)amino)-2-oxoethyl)-1H-indazole-3-carboxamide]: less than 100 nM; `NC(=O)c1nn(CC(=O)N(CC(=O)Nc2cccc(Cl)n2)C2CCNC2)c2ccccc12` (stereo not shown) [Example 26, 1-(2-((2-((6-chloropyridin-2-yl)amino)-2-oxoethyl)(pyrrolidin-3-yl)amino)-2-oxoethyl)-1H-indazole-3-carboxamide]: 1000 to 10000 nM.
The same measure, in the same setting: next, `NC(=O)c1nn(CC(=O)N(CC(=O)NCc2cccc(C3CC3)c2F)C2CC2)c2ccccc12` [Example 127, 1-(2-(cyclopropyl(2-((3-cyclopropyl-2-fluorobenzyl)amino)-2-oxoethyl)amino)-2-oxoethyl)-1H-indazole-3-carboxamide]: 1000 to 10000 nM; `NC(=O)c1nn(CC(=O)N(CC(=O)NCc2cc(Cl)cc3cn[nH]c23)C2CC2)c2ccccc12` [Example 109, 1-(2-((2-(((5-chloro-1H-indazol-7-yl)methyl)amino)-2-oxoethyl)(cyclopropyl)amino)-2-oxoethyl)-1H-indazole-3-carboxamide]: 1000 to 10000 nM; `N#Cc1cc(Cl)cc(CNC(=O)CN(C(=O)Cn2nc(C(N)=O)c3ccccc32)C2CC2)c1` [Example 133, 1-(2-((2-((3-chloro-5-cyanobenzyl)amino)-2-oxoethyl)(cyclopropyl)amino)-2-oxoethyl)-1H-indazole-3-carboxamide]: 1000 to 10000 nM.
`NC(=O)c1nn(CC(=O)N(CC(=O)NCc2cccc(Cl)n2)C2CC2)c2ccccc12` [Example 107, 1-(2-((2-(((6-chloropyridin-2-yl)methyl)amino)-2-oxoethyl)(cyclopropyl)amino)-2-oxoethyl)-1H-indazole-3-carboxamide]: the concentration for half-maximal inhibition (IC50) fell in the range of 1000 to 10000 nM.
On the same count and under the same terms, next, `COCC(C)N(CC(=O)NCc1cccc(Cl)c1F)C(=O)Cn1nc(C(N)=O)c2ccccc21` (stereo not shown) [Example 68, 1-(2-((2-((3-chloro-2-fluorobenzyl)amino)-2-oxoethyl)(1-methoxypropan-2-yl)amino)-2-oxoethyl)-1H-indazole-3-carboxamide]: 100 to 1000 nM.
Same read-out and setting: next, `NC(=O)c1cc(C(=O)O)n(CC(=O)N(CC(=O)NCc2cccc(Cl)c2F)C2CC2)n1` [Example 44, 3-carbamoyl-1-(2-((2-((3-chloro-2-fluorobenzyl)amino)-2-oxoethyl)(cyclopropyl)amino)-2-oxoethyl)-1H-pyrazole-5-carboxylic acid]: 1000 to 10000 nM.
On the same count and under the same terms, next, `NC(=O)c1nn(CC(=O)N(CC(=O)Nc2cccc(Cl)c2F)C2CC2)c2ccccc12` [Example 7, 1-(2-((2-((3-chloro-2-fluorophenyl)amino)-2-oxoethyl)(cyclopropyl)amino)-2-oxoethyl)-1H-indazole-3-carboxamide]: 100 to 1000 nM.
Take `NC(=O)c1nc(NC(=O)N(CC(=O)NCc2cccc(Cl)c2F)C2CC2)n2ccccc12` [Example 140, 3-(3-(2-((3-chloro-2-fluorobenzyl)amino)-2-oxoethyl)-3-cyclopropylureido)imidazo[1,5-a]pyridine-1-carboxamide]: the IC50 was 100 to 1000 nM.
The same measure, in the same setting: in the case of `NC(=O)c1ccc(CNC(=O)CN(C(=O)Cn2nc(C(N)=O)c3ccccc32)C2CC2)c(F)c1` [Example 117, 1-(2-((2-((4-carbamoyl-2-fluorobenzyl)amino)-2-oxoethyl)(cyclopropyl)amino)-2-oxoethyl)-1H-indazole-3-carboxamide] it was 1000 to 10000 nM.
On the same count and under the same terms, in the case of `N#Cc1cccc2c(C(N)=O)nn(CC(=O)N(CC(=O)NCc3cccc(Cl)c3F)C3CC3)c12` [Example 105, 1-(2-((2-((3-chloro-2-fluorobenzyl)amino)-2-oxoethyl)(cyclopropyl)amino)-2-oxoethyl)-7-cyano-1H-indazole-3-carboxamide] it was 1000 to 10000 nM; in that of `Cc1cc(Cl)cc(CNC(=O)CN(C(=O)Cn2nc(C(N)=O)c3ccccc32)C2CC2)c1` [Example 129, 1-(2-((2-((3-chloro-5-methylbenzyl)amino)-2-oxoethyl)(cyclopropyl)amino)-2-oxoethyl)-1H-indazole-3-carboxamide], 1000 to 10000 nM; in that of `NC(=O)c1nn(CC(=O)N(CC(=O)NCc2cccc(Cl)c2F)C2CC2)c2cccc(F)c12` [Example 97, 1-(2-((2-((3-chloro-2-fluorobenzyl)amino)-2-oxoethyl)(cyclopropyl)amino)-2-oxoethyl)-4-fluoro-1H-indazole-3-carboxamide], 1000 to 10000 nM.
Still for that read-out and setting: next, `NC(=O)c1nn(CC(=O)N(CC(=O)NCc2cccc(Cl)c2F)C(CCO)C2CC2)c2ccccc12` (stereo not shown) [Example 73, 1-(2-((2-((3-chloro-2-fluorobenzyl)amino)-2-oxoethyl)(1-cyclopropyl-3-hydroxypropyl)amino)-2-oxoethyl)-1H-indazole-3-carboxamide]: 1000 to 10000 nM.
Regarding `NC(=O)c1nn(CC(=O)N(CC(=O)Nc2cccc(Cl)n2)C2CNC2)c2ccccc12` [Example 22, 1-(2-(azetidin-3-yl(2-((6-chloropyridin-2-yl)amino)-2-oxoethyl)amino)-2-oxoethyl)-1H-indazole-3-carboxamide], the concentration for half-maximal inhibition (IC50) is 1000 to 10000 nM.
